Series [1] concerns BRAF^V600-mutated metastatic melanoma. Kind of series: Survival (PFS, OS) and Cox exposure-survival analysis under CombiDT. Format: in vivo, human (patients). The conditions noted are these: for Risk of Death, HR (CI95%) for AUCM3 / Risk of Progression, HR (CI95%) for AUCM3: n = 30.
Method: (§6) Pharmacokinetic/pharmacodynamic analysis was conducted in BRAF^V600-mutated MM patients concomitantly treated with CombiDT. Regarding safety, the onset of DLT was considered as the clinical endpoint. A DLT was defined as any toxicity leading to dose reduction or temporary or permanent discontinuation of treatment. Regarding survival, the primary end point was progression free survival (PFS), the time from DAB and TRA treatment initiation to documented progression event (either clinical or radiological progression) or death from any cause. The secondary end-point was overall survival (OS), defined as the time from DAB and TRA treatment initiation to death from any cause. Radiographic evidence of progression was defined according to modified Response Evaluation Criteria in Solid Tumor (RECIST) v1.1 [41].
Multivariate Cox models according to a stepwise procedure were tested including all variables which were significant at 5% level in the univariate analyses.
The subject of series [2] is BRAF^V600-mutated MM patients. Kind of series: Safety: adverse events and dose-limiting toxicities (DLT) under CombiDT. Conditions: human, in vivo. As to the method: Patients initiated DAB at the recommended daily dose of 150 mg twice daily. In patients treated with CombiDT, TRA was started at 2 mg once daily. Reduced starting doses were allowed at physician discretion based on comorbidities and patients’ general condition. All AE were graded using the National Cancer Institute Common Toxicity Criteria v4.0. DAB treatment was continued until disease progression, unacceptable toxicity, or unfitness to receive it.

The nature of series [3]: Population pharmacokinetic model of trametinib (NONMEM) from plasma concentrations. The series is classed as in vivo, human (patients). Conditions: for Vd/F: human, plasma, oral, read-out: V2/F, apparent central volume of distribution of TRA. An excerpt: (§1) Seventy-three outpatients treated with DAB were enrolled from July 2015 to June 2017 in this observational multicentric study including three hospitals of the Assistance Publique—Hôpitaux de Paris (Cochin, Henri Mondor, and Avicenne). To be eligible, patients needed to meet the following criteria: a minimal age of 18 years, metastatic BRAF^V600-mutated solid tumors, treatment with DAB or CombiDT with at least one available DAB concentration measurement.
(§2) DAB, dabrafenib-d9 (internal standard, IS), and TRA were purchased from LGC Standards (Molsheim, France). A custom synthesis was developed by Shanghai Medicilon (Shanghai, China) for OHD. The plasma concentrations were assayed using a validated high-performance liquid chromatography-tandem mass spectrometry (HPLC-MS/MS) (ATSQ Quantum Ultra®mass spectrometer, ThermoFisher, Les Ulis, France). Chromatographic separation was performed on Accucore® C18 (2.1 × 50 mm; 2.6 µm) analytical column (ThermoFisher Scientific, Les Ulis, France) associated with a guard column packed with the same bonded phase. Two hundred microliters (µL) aliquot of plasma (calibration standard, internal quality control or patient sample) was mixed with 20 µL of IS solution. Then 600 µL acetonitrile with 1% (v/v) formic acid was added. Samples were mixed and centrifuged, and the supernatant was evaporated and recovered with 200 µL of mobile phase: water/methanol (70:30%, v/v) with formic acid (0.1% v/v). Ten microliters of this mixture were injected into the HPLC-MS/MS system. The calibration standards ranged from 10 to 2000 ng/mL for DAB and OHD and from 5 to 50 ng/mL for TRA.
(§3) Blood samples were collected in heparinized tubes during the treatment course, and the exact sample time was recorded. Plasma was separated by centrifugation (3000 rpm, 5 min), and stored at −20 °C until analysis.
(§4) The non-linear mixed effects modeling program NONMEM v7.4.1 [34] with the Perl-Speaks NONMEM (PsN) Toolkit v4.8.0 [35] was used to build DAB/OHD and TRA models. Pirana v2.9.2 was used to assist in model development. […] Molar units were used for DAB/OHD analyses. Plasma samples with concentrations below the lower limit of quantification of the assay, non-reliable time information about blood sampling, or without dose information were excluded from the analysis.
(§5) A stepwise strategy was used to identify the base models that best fitted DAB/OHD and TRA pharmacokinetic data. Different structural models such as one or two compartments, with linear absorption with or without lag time, were compared. DAB and OHD were modeled simultaneously testing multi-compartment models for both compounds. We hypothesized that DAB was cleared by complete oxidation to OHD, since it is not eliminated as unchanged molecule in urine and accounts for less than 22% in feces. Moreover, the first-order absorption rate constant (ka) of DAB was fixed to 1.8 h^−1 according to a previously published value to allow an adequate estimate of all pharmacokinetic parameters. Since DAB and TRA are administered orally, the pharmacokinetic parameters represent apparent values. Exponential errors following a log-normal distribution were assumed for the description of IIV of all the pharmacokinetic parameters. Inter-occasion variability (IOV) was tested in both DAB/OHD and TRA models to assess differences in individual parameters across study occasions. Additive, proportional, and mixed error models were compared to depict the residual unexplained variability (RUV) for both drugs and metabolite. The correlation between DAB and OHD data was tested using the L2 item in NONMEM. […]

Series [4] in a line: Model-estimated systemic exposure (AUC) in BRAF^V600-mutated MM patients treated with CombiDT. Conditions: for AUC: human, plasma, oral.
Method: as §6
(§7) Systemic exposures to DAB, OHD, and TRA (AUCDAB, AUCOHD, and AUCTRA, respectively) were calculated with classic equations, composite DAB and OHD AUC (AUCDAB+OHD) as previously explained and AUCOHD/DAB as the ratio of AUCOHD over AUCDAB. Univariate Fisher and Wilcoxon models were performed to identify which parameters could contribute to the onset of DLT. The following variables were tested: sex, age at treatment initiation, BMI, Eastern Cooperative Oncology Group Performance Status (ECOG PS: grade 0-1 vs ≥2), lactate dehydrogenase (LDH) level (<1.5N vs. ≥1.5N), AUCDAB, AUDOHD, AUCDAB+OHD, and AUCTRA.
(§8) Multivariate Cox models according to a stepwise procedure were tested including all variables which were significant at 5% level in the univariate analyses. All the pharmacokinetic/pharmacodynamic analyses were performed using R program v3.6.1 with RStudio v1.1.383 (http://www.r-project.org).
Details of series [5]: method as in earlier work. The conditions noted are these: preclinical data; cited from earlier work.
For series [6] the following is noted: cited from earlier work.
Series [7] relates to mutant BRAF. Further details: method as in PMID 24958809. Conditions: in vitro study; cited from earlier work.
A short description of series [8]: Population pharmacokinetic model of dabrafenib/hydroxy-dabrafenib (NONMEM) from plasma concentrations. Format: in vivo, human (patients).
From the text: as §1, §2, §3, §4, §5

For series [9] the following is noted: human, in vivo.
Method: as §6, §7, §8
Setting [10] is: bootstrap median (n = 500 samples).
Where [11] appears, read: multivariate Cox model with ECOG PS ≥2.

“Also recorded” adds a separate entry of the source. Read-outs that look alike come from different tables or passages of the source.

For `CC(=O)Nc1cccc(-n2c(=O)n(C3CC3)c(=O)c3c(Nc4ccc(I)cc4F)n(C)c(=O)c(C)c32)c1` [TRA, trametinib], in [1] (univariate Cox model), the “Risk of Death, HR (CI95%) for AUCM3” value is recorded as 1.37 (0.94–1.98) and the “Risk of Progression, HR (CI95%) for AUCM3” value was 1.31 (0.93–1.83). Besides, in series [2], the “median time to onset of drug-related DLT” value came to 104 days, the “patients in whom the drug dose was reduced” value was determined as 23%, the “patients in whom the drug was discontinued permanently” value is on record as 10% and the “patients who experienced a drug-related DLT” value is 33%. Moreover, in series [3] (setting [10]), the “CL/F, apparent clearance of TRA” value is 5.82 L/h; the “IIV CL/F, interindividual variability (coefficient of variation)” value was determined as 28.6%; the “IIV Q, interindividual variability (coefficient of variation)” value is on record as 80.1%; the “RUV, residual unexplained variability (additive error)” value is listed as 4.10 ng/mL. Besides, in [3] (setting [10]), the “Tlag, lag time” value is recorded as 0.728 h; the “ka, first order absorption rate constant” value is 1.04 h⁻¹; the Vd/F came out at 65.1 L. In [3] (final TRA model), the “IIV CL/F, interindividual variability (coefficient of variation)” value is reported as 29.6%; the “IIV Q, interindividual variability (coefficient of variation)” value is reported as 80.2%; the “RUV, residual unexplained variability (additive error)” value stood at 4.14 ng/mL; the “Tlag, lag time” value came out at 0.709 h. Also, in series [3] (final TRA model), the “ka, first order absorption rate constant” value is 0.913 h⁻¹ and the Vd/F amounted to 61.9 L. Besides, the “CL/F, apparent clearance of TRA” value in series [3] (final TRA model, n = 60) was found to be 5.83 L/h. Moreover, the AUC (in general, the area under the concentration-time curve, a measure of exposure) in series [4] (AUCTRA, median (range), patients with TRA-related DLT (n = 17), last AUC before onset of DLT) is 268 ng·h/mL. Moreover, in [4] (AUCTRA, median (range), patients without TRA-related DLT (n = 35), average AUC over treatment course), the AUC was 268 ng·h/mL. The AUC in series [4] (median AUCM3 (mean AUC during the first three months of treatment), 30 MM patients of the exposure-survival analysis) is 292 ng·h/mL.
For `CC(C)c1nc(-c2cccc(NS(=O)(=O)c3c(F)cccc3F)c2F)c(-c2ccnc(N)n2)s1` [desmethyl-dabrafenib], the “passage of the intact blood brain barrier” value in series [5] is recorded as “may cross intact blood brain barrier”.
For `CC(C)(CO)c1nc(-c2cccc(NS(=O)(=O)c3c(F)cccc3F)c2F)c(-c2ccnc(N)n2)s1` [OHD, hydroxy-dabrafenib], in series [6], the “mean OHD-to-DAB exposure ratio in plasma” value was 0.8. In addition, the “passage of the intact blood brain barrier” value in series [5] is “lack of OHD diffusion into the brain”. Also, in [1] (setting [11]), the “Risk of Death, HR (CI95%) for AUCM3,OHD” value was 1.61 (1.07–2.45) and the “Risk of Death, HR (CI95%) for AUCM3,OHD/DAB ratio ≥ 1” value is 10.61 (2.34–48.15). In addition, the “Risk of Progression, HR (CI95%) for AUCM3,OHD” value in series [1] (multivariate Cox model with cerebral metastases) was 1.29 (0.99–1.68). The “Risk of Progression, HR (CI95%) for AUCM3,OHD” value in [1] (multivariate Cox model with number of metastasis site ≥3) was 1.27 (0.97–1.68). In addition, in [1] (univariate Cox model), the “Risk of Death, HR (CI95%) for AUCM3,OHD/AUCM3,DAB ratio ≥ 1 vs. < 1” value is reported as 4.11 (1.18–14.29); the “Risk of Progression, HR (CI95%) for AUCM3,OHD/AUCM3,DAB ratio ≥ 1 vs. < 1” value is on record as 1.66 (0.62–4.46); the “Risk of Death, HR (CI95%) for AUCM3” value was 1.64 (1.09–2.48); the “Risk of Progression, HR (CI95%) for AUCM3” value was 1.37 (1.02–1.83). The “potency as an inhibitor of mutant BRAF compared to DAB” value in series [7] is recorded as “two-fold higher pharmacological potency; also recorded: twofold higher potency”. For the same compound, the difference in pharmacokinetics entry in [8] (DAB monotherapy vs. combiDT (ΔOFV = −2.9, p > 0.05)) is “did not differ”. Also, in [8] (base DAB/OHD model), the “CLm/F, apparent clearance of OHD” value is reported as 22.8 L/h; the “IIV CLm/F, interindividual variability (coefficient of variation)” value (shortened to “IIV CLm/F, interindividual variability”) came to 26.8%; the “IIV V3/F, interindividual variability (coefficient of variation)” value (from here on “IIV V3/F, interindividual variability”) turned out to be 84.0%; the “RUV of OHD, residual unexplained variability (proportional)” value was 53.1%. In series [8] (setting [10]), the “CLm/F, apparent clearance of OHD” value came out at 22.9 L/h; the “IIV CLm/F, interindividual variability” value is 21.8%; the “IIV V3/F, interindividual variability” value was found to be 82.0%; the “RUV of OHD, residual unexplained variability (proportional)” value came out at 52.7%. The “θage/(CLm/F), Age effect on CLm/F” value in [8] (setting [10]) is listed as −0.543. Further, the difference in pharmacokinetics result in series [8] (concomitant proton-pump inhibitor (PPI) intake (ΔOFV = −3.5, p > 0.05)) is “did not differ”. For the same compound, in series [8] (final DAB/OHD model), the “CLm/F, apparent clearance of OHD” value was determined as 23.2 L/h; the “IIV CLm/F, interindividual variability” value worked out at 24.0%; the “IIV V3/F, interindividual variability” value was 47.5%; the “RUV of OHD, residual unexplained variability (proportional)” value was 53.1%. Moreover, the “θage/(CLm/F), Age effect on CLm/F” value in series [8] (final DAB/OHD model, median age 61.2 years) is −0.589. Moreover, the “base model variance of clearance explained by covariates (sex, age)” value in [8] (in vivo) is recorded as 20%. Besides, the “decrease in CLm/F” value in [8] (same age variation (20 to 90 years)) is recorded as 51%. The “median AUCOHD/AUCDAB ratio” value in series [9] is given as 0.80 (0.50–1.32). For the same compound, the “median AUCM3 (mean AUC during the first three months of treatment)” value in series [4] (30 MM patients of the exposure-survival analysis) was 6082 ng·h/mL. Moreover, the “AUCM3,OHD/AUCM3,DAB ratio” value in [4] (patients experiencing cerebral progression) is reported as 0.9 (0.5–1.3). Further, the “AUC, median (range)” value in series [4] (patients with DAB-related DLT (n = 12), last AUC before onset of DLT) is listed as 7509.5 (4918–10300) ng∙h/mL. Besides, the “AUCM3,OHD/AUCM3,DAB ratio” value in series [4] (patients with extra-cerebral progression) is on record as 0.8 (0.6–0.8). Also, the “AUC, median (range)” value in [4] (patients without DAB-related DLT (n = 40), average AUC over treatment course) was 5812 (2459–10300) ng∙h/mL.

The values above are taken from article PMC7226106, “Population Pharmacokinetics/Pharmacodynamics of Dabrafenib Plus Trametinib in Patients with BRAF-Mutated Metastatic Melanoma” (Cancers, 2020).
